# Test results from ChEMBL document CHEMBL5131411, “Evaluation of amentoflavone metabolites on PARP-1 inhibition and the potentiation on anti-proliferative effects of carboplatin in A549 cells” (Bioorg Med Chem Lett, 2022).
# Calls of active or inactive are those of the source. The rule behind the calls is not given here.
# Columns and labels:
# [1] = target: Poly [ADP-ribose] polymerase 1 (Homo sapiens, UniProt P09874); experiment: Inhibition of PARP1 (unknown origin)
# A549 [2] = experiment: Potentiation of carboplatin induced antiproliferative activity against human A549 cells assessed as reduction in cell viability at 10 uM by MTT assay; format: functional, cell-based
# A549 [3] = experiment: Potentiation of carboplatin induced antiproliferative activity against human A549 cells assessed as increase in apoptotic cells at 10 uM by Hoechst staining based assay; format: functional, cell-based
# A549 [4] = experiment: Potentiation of carboplatin induced antiproliferative activity against human A549 cells assessed as increase in apoptotic cells at 10 uM by Annexin V-PI double staining based flow cytometric analysis; format: functional, cell-based
# A549 [5] = experiment: Potentiation of carboplatin induced antiproliferative activity against human A549 cells assessed as increase in apoptotic cells at 0.1 to 10 uM by Hoechst staining based assay; format: functional, cell-based; conditions: dose 0.1-10 µM
# A549 [6] = experiment: Potentiation of carboplatin induced antiproliferative activity against human A549 cells assessed as reduction in cell viability at 0.1 to 10 uM by MTT assay; format: functional, cell-based; conditions: dose 0.1-10 µM
# A549 [7] = experiment: Potentiation of carboplatin induced antiproliferative activity against human A549 cells assessed as increase in apoptotic cells at 0.1 to 10 uM by Annexin V-PI double staining based flow cytometric analysis; format: functional, cell-based; conditions: dose 0.1-10 µM
# Chain of Poly [ADP-ribose] polymerase 1 (P09874 whole entry): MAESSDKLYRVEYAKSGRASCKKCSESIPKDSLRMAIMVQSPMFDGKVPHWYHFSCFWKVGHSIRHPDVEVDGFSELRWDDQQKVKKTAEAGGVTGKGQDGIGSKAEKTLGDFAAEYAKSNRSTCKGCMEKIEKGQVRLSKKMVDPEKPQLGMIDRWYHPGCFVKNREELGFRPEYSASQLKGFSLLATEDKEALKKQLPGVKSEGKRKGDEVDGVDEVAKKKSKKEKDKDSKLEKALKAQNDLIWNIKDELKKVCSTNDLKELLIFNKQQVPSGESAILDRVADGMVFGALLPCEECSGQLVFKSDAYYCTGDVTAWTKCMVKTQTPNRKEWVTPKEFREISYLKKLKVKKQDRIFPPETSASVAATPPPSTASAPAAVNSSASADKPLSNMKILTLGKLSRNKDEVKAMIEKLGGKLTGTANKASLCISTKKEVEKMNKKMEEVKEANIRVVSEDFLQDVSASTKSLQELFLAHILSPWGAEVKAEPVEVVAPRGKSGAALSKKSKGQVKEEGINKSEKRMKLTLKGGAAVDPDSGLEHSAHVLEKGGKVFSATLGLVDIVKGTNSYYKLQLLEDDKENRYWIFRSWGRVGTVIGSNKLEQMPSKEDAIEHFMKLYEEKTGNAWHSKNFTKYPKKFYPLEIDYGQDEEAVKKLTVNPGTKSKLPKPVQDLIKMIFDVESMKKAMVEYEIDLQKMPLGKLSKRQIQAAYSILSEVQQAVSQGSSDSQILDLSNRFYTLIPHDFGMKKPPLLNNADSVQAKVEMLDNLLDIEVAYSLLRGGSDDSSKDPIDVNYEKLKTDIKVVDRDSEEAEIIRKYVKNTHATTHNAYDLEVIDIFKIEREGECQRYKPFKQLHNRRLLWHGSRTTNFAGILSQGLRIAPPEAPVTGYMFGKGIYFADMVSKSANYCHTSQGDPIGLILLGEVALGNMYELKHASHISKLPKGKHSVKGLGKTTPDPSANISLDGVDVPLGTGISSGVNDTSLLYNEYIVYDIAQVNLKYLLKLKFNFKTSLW
Compound,IC50 [1],IC50 ([1]; read-out: IC50),Activity (A549 [2]),Activity (A549 [3]),Activity (A549 [4]),Activity (A549 [5]),Activity (A549 [6]),Activity (A549 [7])
O=c1cc(-c2ccc(O)c(-c3c(O)cc(O)c4c(=O)cc(-c5ccc(O)cc5)oc34)c2)oc2cc(O)cc(O)c12 [AMENTOFLAVONE],0.1398 µg/mL,120 nM,Active,Active,Active,–,–,–
O=c1c(O)c(-c2ccc(O)c(-c3c(O)cc(O)c4c(=O)cc(-c5ccc(OS(=O)(=O)O)cc5)oc34)c2)oc2cc(OS(=O)(=O)O)cc(O)c12,–,240 nM,–,–,–,–,–,–
O=c1c(O)c(-c2ccc(O)c(-c3c(O)cc(O)c4c(=O)cc(-c5ccc(O)cc5)oc34)c2)oc2cc(OS(=O)(=O)O)cc(O)c12,0.1158 µg/mL,510 nM,–,–,–,–,–,–
O=c1cc(-c2ccc(O)c(-c3c(O)cc(O)c4c(=O)cc(-c5ccc(OS(=O)(=O)O)cc5)oc34)c2)oc2cc(O)cc(O)c12,0.0804 µg/mL,170 nM,–,–,–,Active,Active,Active
